Three compounds from US5208156A, “Esterase purified from serratia marcescens SR41 (FERM BP-No. 487)” (priority 1990, dated 1993) can be followed below.

This assay concerns the target T1, Serratia marcescens Sr41 (FERM BP-No. 487) esterase, purified esterase of Example 2 (Serratia marcescens, UniProt Q59932).
T1 construct: 62 kDa by SDS-PAGE; N-terminus XIFSYKDLDENA
T1 sequence (Q59932 2-613): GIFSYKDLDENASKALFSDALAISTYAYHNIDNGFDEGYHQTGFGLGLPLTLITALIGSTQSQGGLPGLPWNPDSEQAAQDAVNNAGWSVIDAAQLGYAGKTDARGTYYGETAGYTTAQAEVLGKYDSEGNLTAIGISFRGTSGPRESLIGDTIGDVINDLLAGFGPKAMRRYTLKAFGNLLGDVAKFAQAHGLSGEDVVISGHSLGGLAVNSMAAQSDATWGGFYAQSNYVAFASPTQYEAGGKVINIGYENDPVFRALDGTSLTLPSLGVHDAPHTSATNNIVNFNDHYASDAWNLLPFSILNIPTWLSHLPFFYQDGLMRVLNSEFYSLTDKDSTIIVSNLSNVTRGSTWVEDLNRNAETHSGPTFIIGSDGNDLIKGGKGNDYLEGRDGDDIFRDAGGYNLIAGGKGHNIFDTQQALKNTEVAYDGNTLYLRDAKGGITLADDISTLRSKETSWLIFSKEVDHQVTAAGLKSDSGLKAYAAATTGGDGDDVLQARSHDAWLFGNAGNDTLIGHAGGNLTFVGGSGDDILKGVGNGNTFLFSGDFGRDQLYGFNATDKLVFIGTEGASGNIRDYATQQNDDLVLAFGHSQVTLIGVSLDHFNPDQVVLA
The assay is described as follows: biochemical. Particulars: for Relative activity: 1 mM inhibitor added to enzyme solution, activity with no addition = 100, olive oil substrate, pH 8.0, 37° C. The protocol:
A mixture of 225 ml of 2% polyvinyl alcohol (Poval 117, manufactured by Kurare Co., Ltd.) and 75 ml of olive oil was emulsified by stirring at 14,500 rpm at 5°-10° C. for 10 minutes. 5.0 ml of the olive oil-emulsion thus-obtained and 4.0 ml of 0.25M Tris-HCl buffer (pH 8.0, containing 2.5 mM calcium chloride) were preincubated at 37° C. for 10 minutes. One ml of an enzyme solution was added thereto to initiate enzymatic reaction. After the mixture was incubated at 37° C. for 20 minutes, 20 ml of a mixture of acetone-ethanol (1:1) were added to the reaction mixture to stop the enzymatic reaction. The mixture was titrated with 0.05N sodium hydroxide solution by using phenolphthalein as the indicator. A blank solution was prepared in the same manner as above except that acetone-ethanol (1:1) is added to the substrate solution before addition of the enzyme solution. Said blank solution was titrated in the same manner as above. The amount of enzyme which liberated one μmole of fatty acid per minute was defined as one unit (U).
The effect of metal ions or known enzyme-inhibitors on the purified esterase obtained in Example 2 was investigated as follows: […]

For `O=C(O)c1cc[c]([Hg][Cl])cc1` [p-Chloromercury benzoate], the Relative activity (20 min) was found to be 86%. In the case of `O=C(O)CN(CCN(CC(=O)O)CC(=O)O)CC(=O)O` [Ethylenediaminetetraacetic acid], the “Inhibition of esterase activity” value is “completely inhibited”. In addition, the activity at 1000 µM (20 min, pH 8, read-out: Relative activity) worked out at 0%. With `O=S(=O)(F)Cc1ccccc1` [Phenylmethylsulfonyl fluoride], the Relative activity (20 min) worked out at 100%.
